The record followed here is ChEMBL document CHEMBL1201862, “PubChem BioAssay data set” (2004).

The source made the active and inactive calls.

The target of assay [1] is T1, Replicative DNA helicase DnaB (Mycobacterium tuberculosis, UniProt P9WMR3).
T1 sequence (P9WMR3 whole entry): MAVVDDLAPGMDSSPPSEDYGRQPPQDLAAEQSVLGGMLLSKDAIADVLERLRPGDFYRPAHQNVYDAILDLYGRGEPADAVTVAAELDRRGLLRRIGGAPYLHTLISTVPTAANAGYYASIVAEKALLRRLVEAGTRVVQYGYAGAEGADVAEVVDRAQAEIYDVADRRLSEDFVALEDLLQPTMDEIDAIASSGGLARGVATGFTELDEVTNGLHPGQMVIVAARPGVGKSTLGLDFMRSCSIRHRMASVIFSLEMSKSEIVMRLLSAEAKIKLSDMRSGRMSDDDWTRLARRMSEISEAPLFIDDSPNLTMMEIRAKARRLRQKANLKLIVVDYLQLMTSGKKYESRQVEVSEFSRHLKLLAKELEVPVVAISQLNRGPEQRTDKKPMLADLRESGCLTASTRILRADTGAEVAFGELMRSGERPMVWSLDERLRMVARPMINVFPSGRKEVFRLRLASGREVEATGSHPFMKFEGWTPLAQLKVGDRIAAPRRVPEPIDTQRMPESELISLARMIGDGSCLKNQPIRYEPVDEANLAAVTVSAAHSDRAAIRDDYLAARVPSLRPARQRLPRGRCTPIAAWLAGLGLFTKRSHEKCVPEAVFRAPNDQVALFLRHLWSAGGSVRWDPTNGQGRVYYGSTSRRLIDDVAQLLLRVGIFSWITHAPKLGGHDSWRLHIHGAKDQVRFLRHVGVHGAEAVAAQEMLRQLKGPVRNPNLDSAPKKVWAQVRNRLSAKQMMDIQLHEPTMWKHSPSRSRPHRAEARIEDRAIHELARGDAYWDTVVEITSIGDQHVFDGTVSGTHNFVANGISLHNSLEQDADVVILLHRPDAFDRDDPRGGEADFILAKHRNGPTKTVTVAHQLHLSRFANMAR
The assay is described as follows: DnaB intein splicing inhibitors, dose response, biochemical, cell-free fluorescence (AID 449749). The assay is classed as functional.

Assay [2] has as its target T2, Zinc finger protein mex-5 (Caenorhabditis elegans, UniProt Q9XUB2).
T2 sequence (Q9XUB2 whole entry): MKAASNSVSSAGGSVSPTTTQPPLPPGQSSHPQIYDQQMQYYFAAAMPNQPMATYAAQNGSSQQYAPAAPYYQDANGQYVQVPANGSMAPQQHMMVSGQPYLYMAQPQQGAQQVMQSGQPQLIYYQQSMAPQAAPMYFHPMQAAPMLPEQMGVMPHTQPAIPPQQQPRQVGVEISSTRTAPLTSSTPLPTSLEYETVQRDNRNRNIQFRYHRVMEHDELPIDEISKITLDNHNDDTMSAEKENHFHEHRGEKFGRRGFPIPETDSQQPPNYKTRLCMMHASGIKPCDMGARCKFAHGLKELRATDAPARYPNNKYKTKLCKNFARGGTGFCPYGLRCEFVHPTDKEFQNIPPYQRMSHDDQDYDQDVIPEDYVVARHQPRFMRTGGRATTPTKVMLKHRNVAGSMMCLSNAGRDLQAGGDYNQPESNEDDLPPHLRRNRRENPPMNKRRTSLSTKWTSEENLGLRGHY
The experiment in a line: potency of MEX-5 RNA-binding blockers – biochemical, C. elegans, fluorescence polarization, dose response (AID 1960). (In general: Polarisation of emitted light reports the rotation of a fluorescent probe.)

Assay [3] can be described thus: NIH-3T3 fibroblast cytotoxicity, dose response, cytotoxicity control, cell-based, fluorescence, Alamar Blue, secondary assay (AID 2327).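 Also: NIH-3T3 mouse fibroblasts cultured with fluconazole at 8 µg/mL.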 The assay is classed as functional. (In general: The colour change of resazurin is a common sign of viable cells or microbes.)
The target of a further assay is T3, Protein RecA (Mycobacterium tuberculosis, UniProt P9WHJ3).
T3 sequence (P9WHJ3 whole entry): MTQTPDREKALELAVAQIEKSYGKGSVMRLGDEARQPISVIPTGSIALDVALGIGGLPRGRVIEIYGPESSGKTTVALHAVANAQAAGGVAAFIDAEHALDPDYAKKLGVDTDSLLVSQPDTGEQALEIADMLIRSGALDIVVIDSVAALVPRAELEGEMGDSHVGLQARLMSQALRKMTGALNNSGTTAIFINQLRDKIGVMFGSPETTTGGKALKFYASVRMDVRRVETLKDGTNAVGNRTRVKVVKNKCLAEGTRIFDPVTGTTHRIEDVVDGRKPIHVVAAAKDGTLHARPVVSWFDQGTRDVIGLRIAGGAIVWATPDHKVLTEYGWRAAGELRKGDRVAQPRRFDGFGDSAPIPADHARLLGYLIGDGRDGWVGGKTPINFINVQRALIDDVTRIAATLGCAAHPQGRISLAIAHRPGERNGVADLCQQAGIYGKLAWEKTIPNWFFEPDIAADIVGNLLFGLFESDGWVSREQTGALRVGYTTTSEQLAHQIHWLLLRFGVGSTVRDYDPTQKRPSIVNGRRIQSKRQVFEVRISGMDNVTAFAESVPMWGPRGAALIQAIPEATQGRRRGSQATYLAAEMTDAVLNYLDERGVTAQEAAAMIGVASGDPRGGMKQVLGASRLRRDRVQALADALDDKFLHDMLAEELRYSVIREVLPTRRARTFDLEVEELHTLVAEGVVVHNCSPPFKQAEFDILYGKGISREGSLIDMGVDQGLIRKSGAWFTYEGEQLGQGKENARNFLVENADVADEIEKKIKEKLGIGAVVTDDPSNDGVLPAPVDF
The experiment in a line: Fluorescence Cell-Free Homogeneous Dose Retest to Identify Inhibitors of RecA-Intein Splicing Activity. [Related pubchem assays (depositor defined):AID2097, AID2223, AID489010, AID492950]. The assay is classed as functional.

Assay [4] concerns the target T4, RNA-binding protein pos-1 (Caenorhabditis elegans, UniProt G5EF15).
T4 sequence (G5EF15 whole entry): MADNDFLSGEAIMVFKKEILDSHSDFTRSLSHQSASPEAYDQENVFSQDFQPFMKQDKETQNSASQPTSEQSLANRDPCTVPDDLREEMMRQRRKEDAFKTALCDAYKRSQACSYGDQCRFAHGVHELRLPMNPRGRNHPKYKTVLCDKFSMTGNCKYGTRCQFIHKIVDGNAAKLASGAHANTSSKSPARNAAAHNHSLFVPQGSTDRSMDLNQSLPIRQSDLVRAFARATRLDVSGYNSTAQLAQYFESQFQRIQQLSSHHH
The experiment in a line: disruptors of C. elegans POS-1 RNA interaction – biochemical, fluorescence polarization, dose response (AID 1964).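 Also: purified POS-1 fused to maltose binding protein made in E. coli; potency of compounds blocking POS-1 binding to fluorescent RNA.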

The target in a further assay is Albumin (Bos taurus, UniProt P02769). The assay is described as follows: Counterscreen for inhibitors of T-cell receptor (TCR)-CD3 interaction: Fluorescence-based biochemical high throughput dose response assay to identify inhibitors of T-cell receptor (TCR)-CD3 interaction using a TAMRA-labeled BSA probe. The assay is classed as functional. On the technique in general: Counterscreens check selectivity or assay interference.
Chain of Albumin (P02769 whole entry): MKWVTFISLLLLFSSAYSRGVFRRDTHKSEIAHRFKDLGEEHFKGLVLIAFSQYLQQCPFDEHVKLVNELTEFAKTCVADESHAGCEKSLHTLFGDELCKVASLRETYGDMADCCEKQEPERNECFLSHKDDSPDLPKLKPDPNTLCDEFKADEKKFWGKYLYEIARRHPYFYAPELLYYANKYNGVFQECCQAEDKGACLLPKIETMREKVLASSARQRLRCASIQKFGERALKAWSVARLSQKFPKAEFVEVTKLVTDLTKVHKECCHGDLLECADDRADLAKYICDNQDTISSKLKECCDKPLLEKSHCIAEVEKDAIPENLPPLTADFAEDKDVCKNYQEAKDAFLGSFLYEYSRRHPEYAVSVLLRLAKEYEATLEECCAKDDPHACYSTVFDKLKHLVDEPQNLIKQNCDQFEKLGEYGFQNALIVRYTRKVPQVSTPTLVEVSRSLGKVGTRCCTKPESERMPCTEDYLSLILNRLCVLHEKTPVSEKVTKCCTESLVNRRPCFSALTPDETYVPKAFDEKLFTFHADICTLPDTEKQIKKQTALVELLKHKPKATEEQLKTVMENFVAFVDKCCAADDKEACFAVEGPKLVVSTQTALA

The nature of assay [5]: fluconazole-exposed Candida albicans growth modulators – fluorescence, retest, confirmation (AID 2467). The assay is classed as functional, cell-based.
A short description of assay [6]: HGIII-sPLA2 enzyme inhibition potency – biochemical, QFRET, IC50, dose response (AID 743457).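 Also: green fluorescence rise as the enzyme cleaves BODIPY PC-A2 in liposomes.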
Assay [7] addresses Luciferin 4-monooxygenase (Photinus pyralis, UniProt P08659). The assay is described as follows: inhibition of purified Photinus pyralis luciferase – biochemical, luminescence, dose response (AID 1891).
Assay [8] in a line: blockers of bursicon-stimulated LGR2 cAMP reporter – cell-based, HEK293, CRE-luciferase reporter, cherry pick, set 2, dose response (AID 743343).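 Also: transfected cells were stimulated with diluted bursicon conditioned medium after compound addition.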 Format: functional.
Another assay has as its target T5, Protein skinhead-1 (Caenorhabditis elegans, UniProt P34707).
T5 sequence (P34707 whole entry): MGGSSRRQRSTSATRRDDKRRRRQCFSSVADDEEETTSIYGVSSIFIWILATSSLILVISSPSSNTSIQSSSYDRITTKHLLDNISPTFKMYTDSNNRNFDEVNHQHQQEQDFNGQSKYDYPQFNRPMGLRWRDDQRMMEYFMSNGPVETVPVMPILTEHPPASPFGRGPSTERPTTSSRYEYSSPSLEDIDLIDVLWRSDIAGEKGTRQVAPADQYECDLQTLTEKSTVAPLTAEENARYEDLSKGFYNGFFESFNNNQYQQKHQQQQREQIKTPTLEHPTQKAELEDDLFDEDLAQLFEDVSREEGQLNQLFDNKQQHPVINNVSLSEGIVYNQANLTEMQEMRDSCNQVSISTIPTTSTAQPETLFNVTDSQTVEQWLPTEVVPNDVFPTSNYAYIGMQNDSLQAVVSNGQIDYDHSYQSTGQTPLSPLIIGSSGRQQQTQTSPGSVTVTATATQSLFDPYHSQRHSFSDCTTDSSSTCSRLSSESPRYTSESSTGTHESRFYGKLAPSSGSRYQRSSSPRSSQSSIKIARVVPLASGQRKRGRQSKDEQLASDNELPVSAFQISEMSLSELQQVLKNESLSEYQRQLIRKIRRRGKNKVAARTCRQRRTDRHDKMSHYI
Format: functional.

Assay [9] can be described thus: viability loss in HEK293 cells – cell-based, plate reader, cherry-picked samples, cytotoxicity control, dose response (AID 743446). The assay is classed as functional.
Assay [10] in a line: Luminescence Cell-Based Dose Confirmation HTS to Identify Inhibitors of Platelet Dense Granule Release. [Related pubchem assays: 1663 (Primary HTS), 1678 (Summary of Project)]. Format: functional.
The nature of assay [11]: blockade of melanocortin 4 receptor signaling – cell-based, plate reader, cherry pick, counter-screen for LGR2 antagonist project, dose response (AID 743444).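 Also: transfected HEK 293 cells stimulated with alpha-MSH peptide; potency of inhibitors of the alpha-MSH evoked signal.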 Format: functional.
Assay [12] in a line: A549 cell cytotoxicity, dose response, cytotoxicity control, plate reader, cherry-pick, antagonist series (AID 743412). Format: functional, cell-based.
Assay [13] is described as follows: toxicity toward HepG2 liver cells – cell-based, plate reader, cherry-pick, antagonist series, cytotoxicity control, dose response (AID 743416). The assay is classed as functional.
The nature of assay [14]: DRD fibroblast viability loss – cell-based, non-viral oncogenic, luminescence, dose response (AID 1934). The settings on record: Homo sapiens. Format: functional.
The test system of assay [15] is BJ. The assay is described as follows: BJ-TERT fibroblast viability loss – cell-based, RAS-independent, luminescence, dose response (AID 1933). The assay is classed as functional. The note with it: Homo sapiens.
For assay [16], the system named is BJ. The assay is described as follows: cells. Format: functional, cell-based. The note with it: Homo sapiens.
For assay [17], the system named is BJ. The experiment in a line: BJ-TERT-LT-ST fibroblast viability loss – cell-based, RAS-independent, luminescence, dose response (AID 1935).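 Also: BJ fibroblasts immortalized with TERT plus LT and ST oncogenes.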 The note with it: Homo sapiens. Format: functional.

Chain of Luciferin 4-monooxygenase (P08659 whole entry): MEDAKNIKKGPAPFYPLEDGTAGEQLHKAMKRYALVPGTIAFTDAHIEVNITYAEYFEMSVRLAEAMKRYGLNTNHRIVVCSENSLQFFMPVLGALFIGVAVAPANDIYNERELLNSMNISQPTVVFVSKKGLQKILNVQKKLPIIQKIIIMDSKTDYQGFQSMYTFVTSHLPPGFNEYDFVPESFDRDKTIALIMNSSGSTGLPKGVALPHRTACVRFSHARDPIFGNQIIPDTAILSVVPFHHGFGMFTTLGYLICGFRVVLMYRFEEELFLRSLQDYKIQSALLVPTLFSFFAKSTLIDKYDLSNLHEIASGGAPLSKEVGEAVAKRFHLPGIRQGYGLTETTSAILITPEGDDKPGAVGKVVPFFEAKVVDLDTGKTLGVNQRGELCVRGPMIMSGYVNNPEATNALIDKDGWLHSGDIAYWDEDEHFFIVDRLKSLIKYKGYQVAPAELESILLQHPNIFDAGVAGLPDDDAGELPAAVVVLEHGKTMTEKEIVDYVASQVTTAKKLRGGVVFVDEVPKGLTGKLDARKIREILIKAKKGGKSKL

As for `O=C(NNC(=O)c1ccc2ccccc2c1O)c1ccccc1Cl`, the AC50 in [1] was 30 µM (active). For the same compound, the half-maximal effective concentration (EC50) in assay [2] is 2.31 µM (inconclusive); in assay [3], > 160 µM (inactive); on Protein RecA, > 380 µM (inactive); in [4], 15.4 µM (inconclusive); in assay [5], > 38 µM (not active). In addition, the IC50 on Albumin was > 94.1 µM (inactive); in assay [6], > 122 µM (inactive).

For `CCOc1ccc2nc(NC(=O)c3ccco3)sc2c1`, the values for the 50% effective concentration (EC50) in assay [7] and in [10] were 0.383 µM (active) and 3.13 µM (active), respectively. For the same compound, the AC50 in assay [8] was 8.15 µM (active); in assay [9], 20.6 µM (active); in [11], 7.74 µM (active); in assay [12], 35.4 µM (active); in assay [13] it was 32.6 µM (active). In addition, on Protein skinhead-1, the IC50 is > 100 µM (inactive).

On to `O=C(Nc1ccc(-c2nc3ccccc3[nH]2)cc1)C1CCCO1` (configuration not stated), for which the concentration giving a half-maximal response (EC50) in assay [7] is 1.02 µM (active); in assay [14], 9.19 µM (inconclusive); in the assay on BJ [15] it was 8.39 µM (inconclusive); in the assay with BJ [16], 16.8 µM (inconclusive); in assay [10], 1.69 µM (active); with BJ [17], 22.9 µM (active). Further, the AC50 was 6.14 µM (active) in [8]; 21 µM (active) in assay [9]; 6.98 µM (active) in [11]; 14.1 µM (active) in [12]; 24.7 µM (active) in assay [13].

For orientation: AC50 means the midpoint of the concentration-response curve, whichever way the signal moves. Broadly, the EC50 is the concentration needed to bring the measured effect to its halfway point. For orientation: IC50 means the concentration that gives 50% inhibition.
